Test results taken from patent publication US5210193A, “Piperazine derivatives” (American Cyanamid Company, priority 1990, dated 1993).
In brackets after ≈: the same amount, converted by molar mass.

Legend:
Assay in all cases: in vitro antibacterial MIC, agar plate dilution
Format in all cases: cell-based
[1] = system: Proteus rettgeri CMC 84-41; conditions: Providencia rettgeri, CMC8441, 18 h, 35° C., read-out: MIC
Description: (§1) The in vitro antimicrobial spectrum of the compounds of ths invention were determined by the agar plate dilution method with Mueller-Hinton agar and an inoculum of each test organism of approximately 10^4 colony forming units delivered by the Steers replicating device. The minimal inhibitory concentration (MIC) in mcg/ml is defined as the lowest concentration of test compound that inhibited visible growth after 18 hours incubation at 35° C. Results are given in Table I, with the test compounds identified by the number of their hereinafter described examples.

[2] = system: Enterobacter cloacae VGH 84-37; conditions: Enterobacter cloacae, VGH8437, 18 h, 35° C., read-out: MIC
Description: as §1

[3] = system: Morganella morganii VGH 84-11; conditions: VGH8411, 18 hours, 35° C., read-out: MIC
Description: as §1

[4] = system: Staphylococcus aureus Smith; conditions: Staphylococcus aureus, 18 h, 35° C., read-out: MIC
Description: as §1

[5] = system: Klebsiella pneumoniae MOR 84-4; conditions: Klebsiella pneumoniae, MOR844, 18 h, 35° C., read-out: MIC
Description: as §1

[6] = system: Streptococcus faecalis ATTC 29212; conditions: Enterococcus faecalis, ATTC29212, 18 hours, 35° C., read-out: MIC
Description: as §1

[7] = system: Escherichia coli CMC 84-11; conditions: Escherichia coli, CMC8411, 18 h, 35° C., read-out: MIC
Description: as §1

Klebsiella pneumoniae AD = conditions: Klebsiella pneumoniae, 18 h, 35° C., read-out: MIC
Description: as §1

[8] = system: Pseudomonas aeruginosa VGH 84-4; conditions: Pseudomonas aeruginosa, VGH844, 18 h, 35° C., read-out: MIC
Description: as §1

[9] = system: Escherichia coli ATCC 25922; conditions: Escherichia coli, ATCC25922, 18 h, 35° C., read-out: MIC
Description: as §1

[10] = system: Staphylococcus aureus ATCC 25913; conditions: ATCC25913, 18 hours, 35° C.
Description: as §1

[11] = system: Enterobacter aerogenes VGH 84-36; conditions: Klebsiella aerogenes, VGH8436, 18 hours, 35° C., read-out: MIC
Description: as §1

[12] = system: Streptococcus faecalis VGH 84-65; conditions: Enterococcus faecalis, VGH8465, 18 h, 35° C., read-out: MIC
Description: as §1

Escherichia coli LL 311 = conditions: Escherichia coli, LL311, 18 h, 35° C., read-out: MIC
Description: as §1

[13] = system: Serratia marcescens K 84-18; conditions: Serratia marcescens, K8418, 18 h, 35° C., read-out: MIC
Description: as §1

[14] = system: Serratia marcescens VGH 84-30; conditions: Serratia marcescens, VGH8430, 18 h, 35° C., read-out: MIC
Description: as §1

[15] = system: Morganella morganii CMC 84-37; conditions: Morganella morganii, CMC8437, 18 h, 35° C., read-out: MIC
Description: as §1

[16] = system: Pseudomonas aeruginosa LL-1244; conditions: Pseudomonas aeruginosa, LL1244, 18 h, 35° C., read-out: MIC
Description: as §1

[17] = system: Streptococcus faecalis UCI 85-19; conditions: Enterococcus faecalis, UCI8519, 18 h, 35° C., read-out: MIC
Description: as §1

[18] = system: Staphylococcus aureus ATTC 29213; conditions: Staphylococcus aureus, ATTC29213, 18 h, 35° C., read-out: MIC
Description: as §1

[19] = system: Staphylococcus aureus VGH 84-45; conditions: Staphylococcus aureus, VGH8445, 18 h, 35° C., read-out: MIC
Description: as §1

SMILES | MIC [1] [µg/mL] | MIC [2] [µg/mL] | MIC [3] [µg/mL] | MIC [4] [µg/mL] | MIC [5] [µg/mL] | MIC [6] [µg/mL] | MIC [7] [µg/mL] | MIC (Klebsiella pneumoniae AD) [µg/mL] | MIC [8] [µg/mL] | MIC [9] [µg/mL] | MIC [10] [µg/mL] | MIC [11] [µg/mL] | MIC [12] [µg/mL] | MIC (Escherichia coli LL 311) [µg/mL] | MIC [13] [µg/mL] | MIC [14] [µg/mL] | MIC [15] [µg/mL] | MIC [16] [µg/mL] | MIC [17] [µg/mL] | MIC [18] [µg/mL] | further results
CCn1cc(C(=O)O)c(=O)c2cc(F)c(N3CCNC(c4cc(C)sc4C)C3)cc21 (stereo not drawn) [Example 48, 7-[3-(2,5-Dimethyl-3-thienyl)-1-piperazinyl]-1-ethyl-6-fluoro-1,4-dihydro-4-oxo-3-quinolinecarboxylic acid] | 2 (≈ 4.66 µM) | 2 (≈ 4.66 µM) | 2 (≈ 4.66 µM) | 0.25 (≈ 0.582 µM) | 2 (≈ 4.66 µM) | 0.25 (≈ 0.582 µM) | 1 (≈ 2.33 µM) | 1 (≈ 2.33 µM) | 32 (≈ 74.5 µM) | 1 (≈ 2.33 µM) | 0.25 (≈ 0.582 µM) | 2 (≈ 4.66 µM) | – | – | – | – | – | – | – | – | –
CCn1cc(C(=O)O)c(=O)c2cc(F)c(N3CCN(C)C(c4ccn(S(=O)(=O)c5ccccc5)c4)C3)cc21 (stereo not drawn) [Example 49] | 256 (≈ 475 µM) | 256 (≈ 475 µM) | 256 (≈ 475 µM) | 0.5 (≈ 0.928 µM) | 256 (≈ 475 µM) | 64 (≈ 119 µM) | 64 (≈ 119 µM) | 64 (≈ 119 µM) | > 256 | 32 (≈ 59.4 µM) | 1 (≈ 1.86 µM) | 256 (≈ 475 µM) | – | – | – | – | – | – | – | – | –
CCn1cc(C(=O)O)c(=O)c2cc(F)c(N3CCNC(c4cc(Cl)sc4Cl)C3)cc21 (stereo not drawn) [Example 51] | 8 (≈ 17 µM) | 16 (≈ 34 µM) | 8 (≈ 17 µM) | 0.5 (≈ 1.06 µM) | 16 (≈ 34 µM) | 32 (≈ 68 µM) | 8 (≈ 17 µM) | 8 (≈ 17 µM) | > 256 | 8 (≈ 17 µM) | 1 (≈ 2.13 µM) | 64 (≈ 136 µM) | – | – | – | – | – | – | – | – | –
COCC1CN(c2cc3c(cc2F)c(=O)c(C(=O)O)cn3C2CC2)CCN1 (stereo not drawn) [Example 81, 1-Cyclopropyl-6-fluoro-1,4-dihydro-7-[3-(methoxymethyl)-1-pioerazinyl]-4-oxo-3-quinolinecarboxylic acid] | 0.12 (≈ 0.32 µM) | – | – | 0.12 (≈ 0.32 µM) | – | – | 0.03 (≈ 0.0799 µM) | – | 2 (≈ 5.33 µM) | 0.25 (≈ 0.666 µM) | – | – | 2 (≈ 5.33 µM) | 0.03 (≈ 0.0799 µM) | 0.5 (≈ 1.33 µM) | 4 (≈ 10.7 µM) | 0.06 (≈ 0.16 µM) | 8 (≈ 21.3 µM) | 2 (≈ 5.33 µM) | 0.25 (≈ 0.666 µM) | MIC [19]: 0.12 µg/mL (≈ 0.32 µM)
COCC1CN(c2cc3c(cc2F)c(=O)c(C(=O)O)cn3-c2ccc(F)cc2)CCN1 (stereo not drawn) [Example 82, 6-Fluoro-1-(4-fluorophenyl)-1,4-dihydro-7-(3-(methoxy-methyl)-1-piperazinyl]-4-oxo-3-cuinolinecarboxylic acid] | 1 (≈ 2.33 µM) | – | – | 0.12 (≈ 0.279 µM) | – | – | 0.12 (≈ 0.279 µM) | – | 8 (≈ 18.6 µM) | 0.25 (≈ 0.582 µM) | – | – | 8 (≈ 18.6 µM) | 0.25 (≈ 0.582 µM) | 2 (≈ 4.66 µM) | 16 (≈ 37.3 µM) | 1 (≈ 2.33 µM) | 32 (≈ 74.5 µM) | 8 (≈ 18.6 µM) | 0.5 (≈ 1.16 µM) | MIC [19]: 0.12 µg/mL (≈ 0.279 µM)
O=C(O)c1cn(C2CC2)c2cc(N3CCNC(COc4ccccc4)C3)c(F)cc2c1=O (stereo not drawn) [Example 83, 1-Cyclopropyl-6-fluoro-1,4-dihydro-4-oxo-7-[3-(phenoxymethyl)-1-piperazinyl]-3-quinolinecarboxylic acid] | 0.25 (≈ 0.571 µM) | – | – | 0.06 (≈ 0.137 µM) | – | – | 0.06 (≈ 0.137 µM) | – | 4 (≈ 9.14 µM) | 0.12 (≈ 0.274 µM) | – | – | 2 (≈ 4.57 µM) | 0.12 (≈ 0.274 µM) | 0.5 (≈ 1.14 µM) | 4 (≈ 9.14 µM) | 0.12 (≈ 0.274 µM) | 32 (≈ 73.1 µM) | 2 (≈ 4.57 µM) | 0.25 (≈ 0.571 µM) | MIC [19]: 0.03 µg/mL (≈ 0.0686 µM)
